Source: US12472166B2, “Inhibition of mycobacterial type VII secretion” (priority 2019, dated 2025)
Entries after “also recorded” stand apart in the source; their conditions may differ.

Key:
Format in all cases: cell-based
[1] = tested on: ESX-5 dependent secretion
[2] = tested on: Apa (SEC dependent secretion)
[3] = tested on: PE_PGRS and EsxN (ESX-5 dependent secretion)

SMILES | effect on ESX-5 secretion activity (lipase DGGR vs viability REMA) [1] | further results
CCOC(=O)CNC(=O)CSc1nc(-c2cccc(C)c2)ns1 [Compound I-40, reference compound] | affect ESX-5 secretion activity | 
COc1ccc(-c2nsc(SCC(=O)NC3CCCC3)n2)cc1 [Compound I-12] |  | secretion of Apa [2]: did not affect secretion; effect on secretion of the reporter lipase LipY when mspA was over-produced [1]: showed no changes; lipase secretion compared to DMSO treated control [1]: significant reduction of lipase secretion; secreted PE_PGRS proteins compared to DMSO control [3]: most drastic decrease; also recorded: secretion inhibition similar to the non-functional ESX-5 mutant
CCOC(=O)CNC(=O)CSc1nc(-c2ccccc2)ns1 [Compound I-41, reference compound] | affect ESX-5 secretion activity | 
CO[C@H]1/C=C/O[C@@]2(C)Oc3c(C)c(O)c4c(O)c(c(/C=N/N5CCN(C)CC5)c(O)c4c3C2=O)NC(=O)/C(C)=C\C=C\[C@H](C)[C@H](O)[C@@H](C)[C@@H](O)[C@@H](C)[C@H](OC(C)=O)[C@@H]1C [Rifampin, reference compound] |  | lipase activity (DGGR) readout, control condition [1]: negative
COc1ccc(-c2nsc(SCC(=O)NCC3CCCC3)n2)cc1 [Compound I-38, reference compound] | do not affect the activity of ESX-5 | 
O=C(CSc1nc(-c2ccccc2)ns1)NC1CCCC1 [Compound I-5] | significant reduction in lipase activity (substrate DGGR) before the bacterial viability (REMA) is affected | 
Cc1cccc(-c2nsc(SCC(=O)NCC3CCCO3)n2)c1 (stereo not shown) [Compound I-39, reference compound] | do not affect the activity of ESX-5 | 
